Measurements taken from patent US11786523B2, “Composition and method for reducing thrombocytopenia” (BEYONDSPRING PHARMACEUTICALS, INC., priority 2018, dated 2023).

B1: pegfilgrastim (protein, chains of the INN, looked up)
chain: TPLGPASSLPQSFLLKCLEQVRKIQGDGAALQEKLCATYKLCHPEELVLLGHSLGIPWAPLSSCPSQALQLAGCLSQLHSGLFLYQGLLQALEGISPELGPTLDTLQLDVADFATTIWQQMEELGMAPALQPTQGAMPAFASAFQRRAGGVLVASHLQSFLEVSYRVLRHLAQP
modifications: PEG
notes: granulocyte-colony stimulating factor (G-CSF) drug used as comparator

Assays:
[1] = system: gemcitabine-induced thrombocytopenia; assay: Effects of plinabulin on hematology parameters (platelet counts) following gemcitabine administration in the rat; assay type: in vivo
Method: The effects of plinabulin on the hematology parameters following changes induced by gemcitabine administration in the rat were evaluated. The vehicle was prepared using 7.11% Tween 80 (v/v): 25.5% Propylene glycol (v/v): 67.4% D5W (v/v). D5W is 5% dextrose in water for injection.
Plinabulin or Pegfilgrastim were first dissolved in the Tween 80-PG mixture and then diluted with D5W. Test item was dissolved in Tween 80-PG mixture on the day before and stored at RF. D5W was added on the day of dosing to complete the formulation.
Animals were randomized based on body weight and/or absolute neutrophil counts and assigned to groups. Before the initiation of dosing, any assigned animals considered unsuitable for use in the study were replaced by alternate animals obtained from the same shipment and maintained under the same environmental conditions. Each animal was uniquely identified using indelible ink. A minimum acclimation period of 5 days was allowed between animal receipt and the start of treatment in order to accustom the animals to the laboratory environment.
For the lab evaluation, the animal blood was collected by jugular venipuncture. Samples (0.3 mL) were collected in EDTA tubes. Additional blood samples may be obtained (e.g., due to clotting of non-serum samples) if permissible sampling frequency and blood volume are not exceeded. After collection, samples were transferred to Clinical Laboratories for hematology analysis using the Advia and results entered into the Provantis® system.
Administration of Inducing Agent
1. Gemcitabine; Groups 1, 3 and 4
Dosing regimen: Single dosing on Day 1
Intravenously (IV bolus) over ˜1 minute at a dose volume of 5 mL/kg.
Group 2 received Vehicle.
2. Pegfilgrastim; Groups 2 and 4
Dosing regimen: Single dosing on Day 2, 24 hours after Gemcitabine
Route of administration: Subcutaneous (SC) injection.
Dose volume: 10 mL/kg, based on the most recent body weight measurement
Dosing regimen: Single dosing on Day 1, 1 hr after Gemcitabine
Route of administration: Intra-peritoneal (IP) injection.
Group 1 received Vehicle.
The dosing time points for groups 1 to 4 include days −3, 1, 2, 3, 4, 5, 6, 7, 8, 9 and 10. Additional blood samples may be obtained (e.g., due to clotting of non-serum samples) if permissible sampling frequency and blood volume are not exceeded. After collection, samples will be transferred to Clinical Laboratories for hematology analysis using the Advia and results entered into the Provantis® system.

[2] = system: thrombocytopenia in patients receiving docetaxel; assay: Phase 2/3 randomized study of plinabulin versus pegfilgrastim in patients with solid tumors receiving docetaxel myelosuppressive chemotherapy (platelet count, thrombocytopenia); assay type: in vivo, human; conditions: patients on docetaxel 75 mg/m^2, preliminary; for change of platelet count (percent) from day 1 to day 15: pegfilgrastim 6 mg vs plinabulin 20 mg/m^2, FIG. 2; for development of thrombocytopenia (percentage of patients at each grade): plinabulin 20 mg/m^2 vs pegfilgrastim 6 mg, FIG. 5
Method: The effects of plinabulin on the thrombocytopenia is studied in comparison to pegfilgrastim. A phase 2/3, multicenter, randomized, double blind study is performed with plinabulin versus pegfilgrastim in patients with solid tumors receiving docetaxel myelosuppressive chemotherapy is evaluated. The patients are on study for approximately 5 months, including screening, on treatment, and follow-up. Study design: This is a multicenter, randomized study with an open label phase 2 portion and a double blind phase 3 portion. Approximately 190 patients are enrolled in this study. All patients receive docetaxel at a dose of 75 mg/m^2. In Phase 2, only patients with advanced or metastatic NSCLC after failing platinum-based therapy are enrolled. In Phase 3, patients with one of the following diagnosis are enrolled: advanced or metastatic breast cancer, who have failed<5 prior lines of chemotherapy; advanced or metastatic NSCLC who have previously received platinum-based therapy and have either disease progression, are intolerant of platinum-based therapy or, in the opinion of the investigator, would benefit from docetaxel chemotherapy; or hormone refractory (androgen independent) metastatic prostate cancer. The eligibility of all patients will be determined during a 28-day screening period. Phase 2 (Open Label): Approximately 40 patients with advanced or metastatic NSCLC are enrolled. Patients are randomly assigned with approximately 10 patients enrolled in each arm, with the arm designation and planned intervention as follows: Arm 1: Docetaxel (75 mg/m^2)+pegfilgrastim (6 mg) Arm 2: Docetaxel (75 mg/m^2)+plinabulin (20 mg/m^2) Arm 3: Docetaxel (75 mg/m^2)+plinabulin (10 mg/m^2) Arm 4: Docetaxel (75 mg/m^2)+plinabulin (5 mg/m^2) Once the study is temporarily closed to enrollment in phase 2, a PK/PD analysis is performed to determine the RP3D. The PK/PD analysis is done by an independent party at the time 40 patients in Phase 2 have completed at least Cycle 1. Treatments Administered: Both Phase 2 and Phase 3, Cycles 1 to 4, consist of docetaxel 75 mg/m^2 administered by intravenous (IV) infusion on Day 1 over 60 minutes (±5 minutes) every 21 days. In the phase 2 portion, on Day 1 of each cycle, 1.5 hours (±10 minutes) after the start time of docetaxel infusion (i.e., approximately 30 minutes after the end of docetaxel infusion), patients assigned to a plinabulin arm (arms 2-4) get a single intravenous infusion of plinabulin at their assigned dose over 30 minutes (±5 minutes). Thus, the wait time between end of docetaxel infusion and start of the plinabulin infusion is approximately 30 minutes. On Day 2 of each cycle, ≥24 hours after completing chemotherapy, patients assigned to pegfilgrastim (arm 1) receive a single dose of pegfilgrastim (6 mg) (subcutaneous injection). Laboratory test results (hematology and serum chemistry) are collected via a central laboratory. Safety laboratory tests are required prior to treatment on Day 1 of each cycle and can be collected by a local laboratory; however, all other scheduled blood samples as per the schedule assessments and procedure table must also be obtained for central laboratory assessment. Urinalysis is performed at screening only. CD34+ counts are established through a fluorescence-activated cell sorting (FACS) method. Duration of Treatment: Patients received treatment with study drug for up to 4 cycles in this study, a treatment cycle is 21 days; thereafter, patients may continue receiving docetaxel and pegfilgrastim at the Investigator's discretion. After completion of 4 cycles, patients completed a safety follow-up visit 30 days (±2 days) after the last dose of study drug. If, in the opinion of the investigator, the patient would benefit from more than 4 cycles of docetaxel and open label pegfilgrastim, then the fifth cycle would not start until completion of the safety follow-up visit (in this instance, the safety follow-up visit will be Cycle 4 Day 21).

Row | Molecule | platelet counts versus gemcitabine alone group ([1]; Days 8 and 9, gemcitabine and plinabulin group) | effect on thrombocytopenia observed with gemcitabine alone ([1]; gemcitabine 100 mg/kg IV + plinabulin 7.5 mg/kg IP, FIG. 1) | platelet counts ([1]; gemcitabine 100 mg/kg IV Day 1 + plinabulin 7.5 mg/kg IP 1 hr after, all sampling days, FIG. 1) | recovery from gemcitabine-induced thrombocytopenia versus gemcitabine alone ([1]; gemcitabine and plinabulin group) | percentage of patients with greater than 30% platelet decrease from baseline, compared with pegfilgrastim group ([2]; cycles 1-4, plinabulin groups, FIG. 3) | change of platelet count (percent) from day 1 to day 15 [2] | development of thrombocytopenia (percentage of patients at each grade) [2] | incidence of developing thrombocytopenia (percentage of patients at each grade) ([2]; plinabulin 5, 10 and 20 mg/m^2 vs pegfilgrastim 6 mg, FIG. 4) | percentage of patients with greater than 30% platelet decrease from baseline ([2]; cycles 1-4, FIG. 3)
1 | CC(C)(C)c1[nH]cnc1/C=c1\[nH]c(=O)/c(=C/c2ccccc2)[nH]c1=O [plinabulin, Plinabulin] | statistically greater | reduced the thrombocytopenia observed with gemcitabine alone | > 500 ×10^3 cells/μL | more rapid | lower percentages | more effective in maintaining the platelet count | did not develop thrombocytopenia | lower incidences of developing thrombocytopenia than the pegfilgrastim group | –
2 | B1 | – | – | – | – | – | greater than the plinabulin group | some patients in the pegfilgrastim group developed thrombocytopenia | – | ~85%
